“Also recorded” adds a separate entry of the source.

This is an account of results in patent publication US9790504B2, “Anti-tumor therapy” (The University of Chicago, priority 2013, dated 2017).

One experiment has as its system Stat3. The experiment in a line: Western blot of interferon-mediated Stat3 activation with Jak inhibitors. The experiment is classed as cell-based. As to conditions: β- and γ-interferon (Type I and Type II IFN) signaling, SCC61 cells. How it is done:
(§1) Treatment with TG and Rux inhibited β- and γ-interferon-mediated activation of Stat1 and Stat3;
(§2) Total cellular protein was extracted in radioimmunoprecipitation assay buffer with protease inhibitors added (1×PBS, 1% NP40, 0.5% sodium deoxycholate, 0.1% SDS, 1 mmol/L Na3VO4, 2 μg/mL aprotinin, 1 mmol/L phenylmethylsulfonyl fluoride). All samples were normalized by protein concentration using Bradford reagent and standard solution of bovine serum albumin (1 mg/mL). Concentration of all samples was adjusted to 1 mg/mL and equal amount of protein was loaded in each well. For total proteins, 10 μg of protein was loaded per well. Proteins were separated on 7.5%-12% SDS-PAGE (depending on molecular mass of protein) and transferred to polyvinylidene difluoride membranes (PVDF). Total proteins were detected using the rabbit or goat primary Abs. For loading control, the antibodies for actin (I-19) and glyceraldehyde-3-phosphate dehydrogenase (GAPDH; FL-335) were used. All antibodies were purchased from Santa Cruz Biotechnology. Images were quantified with ImageJ software by integration pixel values across the area of specific bands.
(§3) The effects of Jak1/2 and Jak2 inhibitors were investigated on the activation of Stat1 and Stat3 in the context of Type I and Type II IFN signaling. […]
A general note: A western blot detects proteins with antibodies after separation by electrophoresis.

In experiment [1] the test system is CW22Rv1 (pStat3-positive) xenografts. The experiment in a line: Xenograft in nude mice treated by ionizing radiation, TG, or their combination. It counts as in vivo. As to conditions: constitutively active Jak/Stat signaling. On the procedure:
(§4) The relative sensitivity of lung cancer cell lines to TG and etoposide—one of the most common drugs in adjuvant chemotherapy of lung cancer was also tested. Subgroups of cell lines were found with relatively high resistance to etoposide (SF>0.5) but relatively sensitive to TG (0.1<SF<0.2; see FIG. 8). As proof of principle, two isogenic cell lines CWRR1 (pStat3-negative, without constitutive activation of Jak/Stat-signaling) and CW22Rv1 (with constitutively active Jak/Stat signaling) were established as xenografts in nude mice and treated by ionizing radiation, TG, or their combination.

In experiment [2] the test system is CWRR1 (pStat3-negative) xenografts. The description is as above. The experiment is classed as in vivo. As to conditions: without constitutive activation of Jak/Stat signaling. How it is done:
as §4

A further experiment deals with lung cancer cell lines. The experiment in a line: Clonogenic assay, sensitivity of lung cancer cell lines to drug. The experiment is classed as cell-based. On the procedure: (§5) To screen the candidate interferon-stimulated genes, a panel of fifteen individual cancer cell lines were selected from those available in our lab, the ATCC, or affiliated laboratories (see Table No. 3, below). These cell lines were characterized for relative radioresistance using a clonogenic assay. Briefly, the cells were cultured in their appropriate media at 5% CO2 at 37° C. Optimal cell plating concentrations for a p60 dish were determined for each cell line. The majority of cell lines were plated in triplicate at concentrations of 100 cells/plate for control, 1000 cells/plate for 2 Gy, 2000 cells/plate for 5 Gy, and 3000 cells/plate for 8 Gy. Plates were irradiated 24 hours after plating with either 2, 5, or 8 Gy using a Nordion Gammacell ^60Co irradiator operating at a dose rate of ˜18 Gy/minute. Cells were allowed to grow for 10-21 days (depending on the cell line) until colonies were >50 cells. Plates were then fixed with formalin and stained with crystal violet. Colonies with more than 50 cells were counted. Clonogenic survival for Clonogenic data was obtained for all cell lines tested in screen.
In subsequent experiments, 18 lung cancer cell lines were tested for sensitivity to the Jak2 inhibitor SAR302503 (TG) using a clonogenic assay. […] Further, radioresistance was positively correlated with resistance to Jak2 suppression in 11 cell lines. […]

For another experiment, the system named is different cell lines. In words: Suppression of tumor growth in different cell lines. It counts as cell-based. As to conditions: data not shown.
Another experiment has as its system H2030 cells. The experiment in a line: Clonogenic assay, ionizing radiation plus TG. The experiment is classed as cell-based. As to conditions: 5 Gy+1 μM TG; most radioresistant cells. How it is done:
as §5
In subsequent experiments, 18 lung cancer cell lines were tested for sensitivity to the Jak2 inhibitor SAR302503 (TG) using a clonogenic assay. […] Further, radioresistance was positively correlated with resistance to Jak2 suppression in 11 cell lines.

In another experiment the test system is Stat1. The experiment in a line: Western blot of interferon-mediated Stat1 activation with Jak inhibitors. It counts as cell-based. As to conditions: β- and γ-interferon (Type I and Type II IFN) signaling, SCC61 cells. How it is done: as §1, §2, §3
Experiment [3] deals with two lung cancer cell lines. As to conditions: associated with suppression of the Stat3 pathway; cited from earlier work.

As to `Cc1cnc(Nc2ccc(OCCN3CCCC3)cc2)nc1Nc1cccc(S(=O)(=O)NC(C)(C)C)c1` [TG], the “phosphorylation (activation) of Stat3” value with Stat3 is “suppressed; also recorded: inhibited”. Moreover, the “sensitization to ionizing radiation” value in experiment [1] was “successfully sensitized”; in experiment [2], “not sensitized”. The “sensitivity to TG” value in the experiment with lung cancer cell lines (7 relatively radioresistant cell lines of 18 lung cancer cell lines, clonogenic assay) was “high sensitivity”. Besides, in the experiment on different cell lines, the “suppression of tumor growth compared to Ruxolitinib” value is listed as “more effectively suppressed tumor growth compared to Ruxolitinib”. In addition, the clonogenic colonies entry in the experiment with H2030 cells is on record as “no clonogenic colonies formed”. Further, the “phosphorylation (activation) of Stat1” value in the experiment on Stat1 is given as “suppressed; also recorded: inhibited”.
For `Cc1cnc(Nc2ccc(N3CCN(C)CC3)cc2)nc1Nc1cccc(S(=O)(=O)NC(C)(C)C)c1` [TG101209], in experiment [3], the radiosensitizing effects result is recorded as “radiosensitizing effects”.
For `COc1cc([C@@H]2c3cc4c(cc3[C@@H](O[C@@H]3O[C@@H]5CO[C@@H](C)O[C@H]5[C@H](O)[C@H]3O)[C@H]3COC(=O)[C@H]23)OCO4)cc(OC)c1O` [etoposide], in the experiment with lung cancer cell lines (subgroups of lung cancer cell lines with high resistance to etoposide but relatively sensitive to TG), the “SF (surviving fraction)” value is more than 0.5.
